Columns and labels:
Type in all cases: cell-based
[1] = tested on: one-way MLR-generated human T-lymphocyte-mediated cytolysis; test: Cytolysis by CTLs generated in one-way MLR, 51Cr-release assay; conditions: T-cell, 1.0 µg/mL JO-4 during 5-7 day one-way MLR, four hour 51Cr-release, read-out: inhibition of the lytic capability of cytotoxic T-cells
Source text: The "one-way MLR" was set up in tissue culture flasks with mononuclear cells from two different donors as in the "two-way MLR" described above. However, in "one-way MLR", one of the two mononuclear leukocyte populations was rendered incapable of proliferation by treatment with mitomycin C, an antimitotic drug, prior to culture. In this "one-way MLR", the treated cells served exclusively as stimulators and the untreated cells, still capable of proliferation, served as the responders. The responder cells, during a 5-7 day culture period, expressed the CD8+ phenotype but not the CD4+. These CD8+ cells served exclusively as cytolytic T lymphocytes (CTLs) which lyse target cells from the same individual as the original stimulator cell population. In transplantation, these MHC-restricted cytotoxic CD8+ T-cells lyse MHC disparate donor tissue targets, leading to graft rejection (Abbas, A.K., eds., 1994, 2nd ed., Cellular and Molecular Immunology, W.B. Saunders Co., USA; Imagawa, D.K., et al., in Aggarwal, B.B., et al., eds., 1995, Human Cytokines: Their role in Disease and Therapy, Blackwell Science, Inc., Cambridge, MA).
Mononuclear cells of one donor were first treated with mitomycin C (Sigma Chem. Co., St. Louis, MO) (50 µg/50 x 10^6 cells) in 15 mL tubes wrapped in aluminum foil and incubated in a 37°C water bath for 1 hr. […]

[2] = Colorimetric MTT cytotoxicity assay, HMEC; conditions: human, read-out: IC50 concentration (cytotoxicity)
[3] = tested on: human malignant melanoma (RPMI-7951); test: Colorimetric MTT cytotoxicity assay, RPMI-7951; conditions: RPMI-7951, 72 hours
Procedure: The following materials and methods were employed in the non-limiting Examples set out below. Tumor cells: Human cervical epitheloid carcinoma (HeLa), human renal clear cell carcinoma (CAKI-1), human malignant melanoma (RPMI-7951) and mouse malignant melanoma (B16-F1) were procured from ATCC (Rockville, MD) and maintained in vitro with MEM medium (Mediatech, Inc., Herndon, VA) supplemented with 10% heat-inactivated fetal bovine serum (American Qualex, San Clemente, CA), 10mM glutamine, 100 U/ml penicillin, and 100 µg/ml streptomycin (Sigma Chemicals, Saint Louis, MO) (complete medium). […] Cell viability was assessed by trypan blue dye exclusion test and the cell number was adjusted to required concentration. Colorimetric MTT assay: Cytotoxic effects of the hypoestoxide compounds of formulas I and II (JO-4A) were determined in vitro by a colorimetric assay (Mosmann, T., J. Immunol. Methods, 65: 55-63, 1983). […] Mixing with a multichannel pipetter dissolved the dark blue crystals and the absorbance was measured at 545-650 nm using an ELISA plate reader. […] The tumors were measured with a microcaliper, and the tumor volume was calculated by the formula: Length x width x height x 0.5236 (Jungwirth, A. et al., Proc. Natl. Acad. Sci. USA, 94:5810-5813, 1997). […]

Compound | inhibition at 1 µg/mL [1] [%] | CC50 at 72 h [2] [µM] | IC50 [3] [µM]
C=C1C(=O)C[C@H]2C[C@@H]3O[C@@]3(C)CC[C@@H]3O[C@@]3(C)C[C@@H](OC(C)=O)[C@H]1C2(C)C [JO-4, hypoestoxide] | 82 | – | –
C=C1C(=O)CC2CC3OC3(C)CCC3OC3(C)CC(O)C1C2(C)C (stereo not drawn) [JO-4A] | – | 25 to 50 | 10 to 12.5

From patent EP0986381B1, “USE OF DITERPENES LIKE HYPOESTOXIDES FOR THE MANUFACTURE OF A MEDICAMENT FOR IMMUNOSUPPRESSION, ANTICANCER AND ANTIVIRAL TREATMENT” (Immune Modulation, Inc., priority 1997, dated 1998)
